Measurements as given in publication PMC11169542, “A probe for NIR-II imaging and multimodal analysis of early Alzheimer’s disease by targeting CTGF” (Nature Communications, 2024).
Ends that are not written are not given here.

Legend:
[1] = tested on: CTGF; test: DGC labelling of CTGF in cells by fluorescence imaging (CLSM); format: cell-based; details: for FL Intensity of DGC per cell: 55 μM DGC 60 min, CLSM
Method: The U87MG, SH-SY5Y, and CTX TNA2 cells in confocal dishes were fixed with 4% paraformaldehyde solution (PFA) for 30 min. Next, the cells were washed with cold PBS three times, and 3% BSA in PBS solution was introduced to the cells to block the nonspecific recognition sites. Then, the cells were incubated with 55 μM DGC for 60 min at room temperature. The control cells were only incubated with a culture medium. Next, the nuclei were stained with 5 μg/mL DAPI solution for 5 min. Finally, the cells were observed by a confocal laser scanning microscope (CLSM, PerkinElmer, USA). The fluorescence intensity of each cell was measured by ImageJ software, the red channel was extracted by clicking Split Channels, and the red fluorescent region, except the nucleus was selected by Freehand selections. Then the average fluorescence intensity in this region was measured and recorded for statistical analysis.
To further determine the specificity of DGC to CTGF, immunofluorescence staining was performed with CTGF antibodies to determine the location of CTGF in cells. First, U87MG cells in confocal dishes were fixed with 4% PFA for 30 min. Next, the cells were washed with PBS three times, and 3% bovine serum albumin (BSA) in PBS solution. Then, the cells were incubated with CTGF antibody (dilution 1:100, Abcam, Cat#ab6992) in PBS for 4 h at 4 °C, and FITC-labeled Goat Anti-Rabbit IgG (H + L) (1: dilution 1:200, Bioss, Cat#bs-0370R-FITC) in 3% BSA solution was added to the cells for another 30 min at 37 °C in the dark. Subsequently, 55 μM DGC were incubated with the cells for 1 h. Finally, the cells were stained with DAPI for 5 min and washed with PBS before the CLSM image (Nikon).
Moreover, a binding site blocking study was performed to confirm the specificity of the DGC to CTGF. First, U87MG cells were fixed with 4% PFA. Then, a PBS solution containing 3% BSA was used to block the nonspecific recognition sites for 30 min. After BSA blocking, the cells were pre-incubated with 5 mM of free DAG peptide for 1 h, followed by 55 μM DGC added for 60 min. Then, DAPI (5 μg/mL) was added to U87MG cells to stain the nuclei. Finally, the cells were imaged by the CLSM system.

[2] = tested on: CTGF; test: Chromogenic DAB oxidation in DGC-labelled cells; format: cell-based; details: 40 μM DGC 4 °C overnight + DAB, Image Pro Plus
Method: To observe accurately the expression level of CTGF in cells with the naked eye, we optimized the conditions for labeling U87MG, SH-SY5Y, and CTX TNA2 cells stained with DGC. According to the study, the optimal incubation concentration of DGC (40 μM) was used to determine the optimal culture conditions using the DAB Horseradish Peroxidase Color Development Kit. After the cells were co-stained by DGC at 4 °C overnight, a DAB chromogenic agent was added to the cells. Since DGC can label CTGF proteins on the cells, when DAB chromogenic is added, DGC on the cells can catalyze DAB to produce an insoluble brown precipitate to attach to the cells.

[3] = target: T1, CTGF (Homo sapiens, UniProt P29279); test: DAB chromogenic imaging of DGC-labelled human brain sections; parameters: The brain tissue samples of autopsy-confirmed AD patients were obtained from the Chinese Brain Bank Center; from tissue; host or cells: postmortem human brain sections (hippocampus, cortex) of AD patients and healthy controls; details: 200 μM DGC 4 °C overnight + DAB
T1 sequence (P29279 27-349): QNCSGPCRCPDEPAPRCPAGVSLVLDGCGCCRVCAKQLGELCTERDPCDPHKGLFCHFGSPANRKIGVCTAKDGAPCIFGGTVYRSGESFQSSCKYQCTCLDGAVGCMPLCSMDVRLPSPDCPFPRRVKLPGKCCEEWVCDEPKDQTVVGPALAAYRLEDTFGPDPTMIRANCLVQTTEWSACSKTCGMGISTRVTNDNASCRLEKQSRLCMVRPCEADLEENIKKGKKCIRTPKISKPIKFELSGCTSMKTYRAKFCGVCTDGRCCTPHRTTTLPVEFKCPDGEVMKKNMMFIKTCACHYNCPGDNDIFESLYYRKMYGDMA
Method: The brain tissue samples of autopsy-confirmed AD patients were obtained from the Chinese Brain Bank Center (CBBC) and Human Brain Bank, Central South University Xiangya School of Medicine. First, the brain sections were air-dried for 15 min at room temperature, followed by immersion in water. 5% H2O2 was applied for 15 min at room temperature. The sections were washed three times with PBS for 5 min each time. Then, tissue repair was performed using trypsin at a temperature of 37 °C for 5 min and washed three times with PBS. We chose 10% sheep serum to block for a duration of 20 min at 37°. Primary antibodies (CTGF antibody and Aβ antibody) were added to the sections overnight at 4 °C. FITC-labeled Goat Anti-Rabbit IgG (H + L) (1: dilution 1:200, Bioss, Cat#bs-0370R-FITC) was applied and incubated at 37 °C for 20 min in darkness. Subsequent washing steps involved rinsing the sections three times with PBS, each time lasting for 5 min while avoiding exposure to light. DAPI staining was performed, taking care to store the samples away from light during the 5-min procedure. Then observed by the CLSM system. Then, we chose the optimal incubation concentration of DGC (200 μM) was used to determine the conditions using DAB Horseradish Peroxidase Color Development Kit. After the brain sections were co-stained by DGC (200 μM) at 4 °C overnight, a DAB chromogenic agent was added to the brain tissue sections to explore whether DGC can catalyze DAB solutions to produce insoluble brown precipitate to attach the brain tissue sections with an optical microscope. Finally, the brain tissue sections were digested with aqua regia to measure the Au content by the ICP-MS system.

Substance: DGC: CTGF-targeting peptide-coated gold nanocluster: one Au26 gold nanocluster coated by eight DAG cyclic peptides, NIR-II and red fluorescence (CDAGRKQKC; also: cyclic peptide, ring not given here, eight peptides on one Au26 nanocluster via Cys Au-S bonds)
- labelling of CTGF after blocking with free DAG peptide ([1]; U87MG cells pre-incubated with 5 mM free DAG 1 h, then 55 μM DGC 60 min): cannot label CTGF in cells pre-blocked by free DAG peptides
- co-localization coefficient (Pearson's correlation coefficient) of DGC and CTGF antibody ([1]; U87MG cells, ImageJ): 0.946
- FL Intensity of DGC per cell ([1]; fixed CTX TNA2 cells, replicate 1): 5.779
- FL Intensity of DGC per cell ([1]; fixed CTX TNA2 cells, replicate 2): 3.821
- FL Intensity of DGC per cell ([1]; fixed CTX TNA2 cells, replicate 3): 8.33
- FL Intensity of DGC per cell ([1]; fixed SH-SY5Y cells, replicate 1): 14.6594
- FL Intensity of DGC per cell ([1]; fixed SH-SY5Y cells, replicate 2): 16.8684
- FL Intensity of DGC per cell ([1]; fixed SH-SY5Y cells, replicate 3): 12.4094
- FL Intensity of DGC per cell ([1]; fixed U87MG cells, replicate 1): 36.9955
- FL Intensity of DGC per cell ([1]; fixed U87MG cells, replicate 2): 33.5045
- FL Intensity of DGC per cell ([1]; fixed U87MG cells, replicate 3): 35.4955
- DAB chromogenic imaging intensity ([2]; CTX TNA2 cells, replicate 1): 0.0128
- DAB chromogenic imaging intensity ([2]; CTX TNA2 cells, replicate 2): 0.01748
- DAB chromogenic imaging intensity ([2]; CTX TNA2 cells, replicate 3): 0.0191
- DAB chromogenic imaging intensity ([2]; SH-SY5Y cells, replicate 1): 0.04369
- DAB chromogenic imaging intensity ([2]; SH-SY5Y cells, replicate 2): 0.03714
- DAB chromogenic imaging intensity ([2]; SH-SY5Y cells, replicate 3): 0.0465
- DAB chromogenic imaging intensity ([2]; U87MG cells, replicate 1): 0.1444
- DAB chromogenic imaging intensity ([2]; U87MG cells, replicate 2): 0.1042
- DAB chromogenic imaging intensity ([2]; U87MG cells, replicate 3): 0.1075
- DAB chromogenic intensity ([3]; AD 1, Cortex section): 0.04756
- DAB chromogenic intensity ([3]; AD 1, Hippocampus section): 0.01899
- DAB chromogenic intensity ([3]; AD 2, Cortex section): 0.04585
- DAB chromogenic intensity ([3]; AD 2, Hippocampus section): 0.0257
- DAB chromogenic intensity ([3]; HC 1, Cortex section): 0.0065
- DAB chromogenic intensity ([3]; HC 1, Hippocampus section): 0.00154
- DAB chromogenic intensity ([3]; HC 2, Cortex section): 0.008159
- DAB chromogenic intensity ([3]; HC 2, Hippocampus section): 0.005
